In US10689414B2 (Agios Pharmaceuticals, Inc., priority 2013, dated 2020):

Key:
IDH1 R132H = IDH1 R132H (Homo sapiens (Human), UniProt O75874, R132H); experiment: In vitro NADPH depletion assay for IDH1m R132H inhibitors; type: biochemical; details: IDH1 R132H enzyme, read-out: IDH R132H IC50
Description: A test compound is prepared as 10 mM stock in DMSO and diluted to 50× final concentration in DMSO, for a 50 μl reaction mixture. IDH enzyme activity converting alpha-ketoglutarate to 2-hydroxyglutaric acid is measured using a NADPH depletion assay. In the assay the remaining cofactor is measured at the end of the reaction with the addition of a catalytic excess of diaphorase and resazurin, to generate a fluorescent signal in proportion to the amount of NADPH remaining. […] The reaction is started with the addition of 10 μl of Substrate Mix ([…], 5 mM alpha-ketoglutarate, in Assay Buffer) and the mixture is incubated for 90 minutes at room temperature.

HT1080 cells = experiment: Cellular assay, inhibition of 2-HG production in HT1080 cells; type: cell-based; details: Homo sapiens, HT-1080, 48 h
Description: Cells (HT1080 or U87MG) are grown in T125 flasks in DMEM containing 10% FBS, 1× penicillin/streptomycin and 500 ug/mL G418 (present in U87MG cells only). They are harvested by trypsin and seeded into 96 well white bottom plates at a density of 5000 cell/well in 100 ul/well in DMEM with 10% FBS. […] Cells are incubated overnight at 37° C. in 5% CO2. The next day test compounds are made up at 2× the final concentration and 100 ul are added to each cell well. The final concentration of DMSO is 0.2% and the DMSO control wells are plated in row G. The plates are then placed in the incubator for 48 hours. […] The cell plate is placed back in the incubator for another 24 hours. At 72 hours post compound addition, 10 mL/plate of Promega Cell Titer Glo reagent is thawed and mixed. The cell plate is removed from the incubator and allowed to equilibrate to room temperature. Then 100 ul of Promega Cell Titer Glo reagent is added to each well of media. The cell plate is then placed on an orbital shaker for 10 minutes and then allowed to sit at room temperature for 20 minutes. The plate is then read for luminescence with an integration time of 500 ms.

U87MG cells = experiment: Cellular assay, inhibition of 2-HG production in U87MG cells; type: cell-based; details: Homo sapiens, U-87 MG, 48 h
Procedure, shortened: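 HT1080 or U87MG cells (U87MG kept with 500 ug/mL G418) seeded at 5000 cells/well and treated with compound at 0.2% final DMSO. Incubated 48 h at 37 °C. 2-HG inhibition determined by LC-MS. Viability read by CellTiter-Glo luminescence at 72 h post-dose.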

Sequence of IDH1 R132H (O75874 whole entry R132H): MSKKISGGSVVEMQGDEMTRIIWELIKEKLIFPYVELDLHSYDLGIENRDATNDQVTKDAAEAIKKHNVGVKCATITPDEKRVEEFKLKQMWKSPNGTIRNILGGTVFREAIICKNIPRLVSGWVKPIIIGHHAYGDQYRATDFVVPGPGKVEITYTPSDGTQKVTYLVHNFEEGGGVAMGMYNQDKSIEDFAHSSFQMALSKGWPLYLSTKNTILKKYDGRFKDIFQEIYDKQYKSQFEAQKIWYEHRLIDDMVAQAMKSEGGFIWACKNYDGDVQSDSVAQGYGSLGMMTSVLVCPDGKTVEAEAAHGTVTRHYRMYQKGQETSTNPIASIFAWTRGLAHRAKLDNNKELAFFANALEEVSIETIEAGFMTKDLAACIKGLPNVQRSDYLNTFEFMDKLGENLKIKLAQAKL

Compound | IC50 (IDH1 R132H) | IC50 (HT1080 cells) | IC50 (U87MG cells)
N#Cc1ccnc(N2C(=O)OCC[C@H]2C(=O)N(c2cncc(F)c2)C(C(=O)NC2CC(F)(F)C2)c2ccccc2F)c1 (stereo in doubt) [Compound 302, (S)-3-(4-cyanopyridin-2-yl)-N—((R)-2-(3,3-difluorocyclobutylamino)-1-(2-fluorophenyl)-2-oxoethyl)-N-(5-fluoropyridin-3-yl)-2-oxo-1,3-oxazinane-4-carboxamide] | < 100 nM | < 100 nM | 
COc1cccnc1N1C(=O)CC[C@H]1C(=O)N(c1cccc(F)c1)[C@H](C(=O)NC1CC(F)(F)C1)c1ccccc1Cl [Compound 17] |  | 500 to 1000 nM | 1000 to 2000 nM
O=C(NC1CC(F)(F)C1)[C@H](c1ccccc1Cl)N(C(=O)[C@@H]1CCC(=O)N1c1nccc2ccccc12)c1cccc(F)c1 [Compound 16] |  | 100 to 500 nM | 500 to 1000 nM

Next, values leading:

IC50 (IDH1 R132H) | IC50 (HT1080 cells) | IC50 (U87MG cells) | Compound
< 100 nM | < 100 nM |  | N#Cc1ccnc(N2C(=O)OCC[C@H]2C(=O)N(c2cncc(F)c2)C(C(=O)NC2CC(F)(F)C2)c2ccccc2)c1 (stereo in doubt) [Compound 301, (S)-3-(4-cyanopyridin-2-yl)-N—((R)-2-((3,3-difluorocyclobutyl)amino)-2-oxo-1-phenylethyl)-N-(5-fluoropyridin-3-yl)-2-oxo-1,3-oxazinane-4-carboxamide]
 | 100 to 500 nM | 100 to 500 nM | O=C(NC1CC(F)(F)C1)[C@H](c1ccccc1Cl)N(C(=O)[C@@H]1CCC(=O)N1c1ccc(Cl)cn1)c1cccc(F)c1 [Compound 48]
